Values of other authors, collected in patent US8318203B2, “Form of administration of racecadotril” (Bioprojet, priority 2006, dated 2012).

Legend:
[1] = racecadotrilate, active metabolite of the pro-drug racecadotril

solubility in water | half-life [1] | SMILES
insoluble in water |  | CC(=O)SCC(Cc1ccccc1)C(=O)NCC(=O)OCc1ccccc1 (racemic) [racecadotril, benzyl (RS)-2-[[2-[(acetylsulphanyl)methyl]-3-phenylpropanoyl]amino]acetate]
 | three to four | O=C(O)CNC(=O)C(CS)Cc1ccccc1 (racemic) [racecadotrilate]
